Measurements published in patent publication US20120211082A1, “PHOTOELECTRIC CONVERSION DEVICE AND SOLAR CELL USING THE SAME” (MITSUBISHI CHEMICAL CORPORATION, priority 2009, published 2012).

Assay: Solubility in THF noted during cyclic voltammetry
Type: physicochemical
Conditions: cyclic voltammetry conditions
Description: Thus, using a mixed solvent of o-dichlorobenzene and acetonitrile (4:1, volume ratio) instead of THF, the cyclic voltammetry was performed.
For `c12c3c4c5c1c1c6c7c2c2c8c3c3c9c4c4c%10c5c5c1c1c6c6c%11c7c2c2c7c8c3c3c8c9c4c4c9c%10c5c5c1c1c6c6c%11c2c2c7c3c3c8c4c4c9c5c1c1c6c2c3c41` [C60, fullerene], the “Solubility in THF” value was “sparingly soluble”.

Assay: Solubility of buffer material in methanol at room temperature
Type: physicochemical
Conditions: not given
With `O=P(c1ccccc1)(c1ccccc1)c1ccc2c(c1)c1cc(P(=O)(c3ccccc3)c3ccccc3)ccc1n2-c1ccccc1` [POCzPO] the “Solubility (MeOH, room temperature)/% by weight” value was over 8 % by weight. For `O=P(c1ccccc1)(c1ccccc1)c1ccccc1` [POPh3], the “Solubility (MeOH, room temperature)/% by weight” value was over 5.0 % by weight. For `Cc1cc(-c2ccccc2)c2ccc3c(-c4ccccc4)cc(C)nc3c2n1` [BCP, 2,9-dimethyl-4,7-diphenyl-1,10-phenanthroline], the “Solubility (MeOH, room temperature)/% by weight” value was 0.1 % by weight. With `c1ccc(-c2cc(-c3ccc4ccccc4c3)nc3c2ccc2c(-c4ccccc4)cc(-c4ccc5ccccc5c4)nc23)cc1` [NBPhen] the “Solubility (MeOH, room temperature)/% by weight” value was under 0.01 % by weight. With `O=P(c1ccccc1)(c1ccccc1)c1ccc2c(c1)C1(c3ccccc3-c3ccccc31)c1cc(P(=O)(c3ccccc3)c3ccccc3)ccc1-2` [POSFPO] the “Solubility (MeOH, room temperature)/% by weight” value was 0.5 % by weight. For `O=P(c1ccccc1)(c1ccc2ccc3cccc4ccc1c2c34)c1ccc2ccc3cccc4ccc1c2c34` [POPy2], the “Solubility (MeOH, room temperature)/% by weight” value was under 0.01 % by weight. With `c1ccc(-n2c(-c3cc(-c4nc5ccccc5n4-c4ccccc4)cc(-c4nc5ccccc5n4-c4ccccc4)c3)nc3ccccc32)cc1` [TPBi] the “Solubility (MeOH, room temperature)/% by weight” value was under 0.01 % by weight. For `O=P(c1ccccc1)(c1ccccc1)c1ccc2ccccc2c1-c1c(P(=O)(c2ccccc2)c2ccccc2)ccc2ccccc12` [BINAPO], the “Solubility (MeOH, room temperature)/% by weight” value was 4 % by weight. With `O=P(c1ccccc1)(c1ccccc1)c1cccc(-c2cc(-c3ccccc3)cc(-c3cccc(P(=O)(c4ccccc4)c4ccccc4)c3)n2)c1` [PO(TPP)PO] the “Solubility (MeOH, room temperature)/% by weight” value was over 8 % by weight. With `O=P(c1ccccc1)(c1ccccc1)c1c(F)c(F)c(-c2c(F)c(F)c(P(=O)(c3ccccc3)c3ccccc3)c(F)c2F)c(F)c1F` [POFBPO] the “Solubility (MeOH, room temperature)/% by weight” value was 1 % by weight.

Assay: Solubility of fullerene compounds in toluene
Type: physicochemical
Conditions: mixed at 40° C., returned to 25° C.
Description: With regard to the solubility of various fullerene compounds, a powder of a fullerene derivative and toluene were mixed at 40° C. The amount of toluene used at this time was a minimum amount at which dissolution was confirmed at 40° C. Thereafter, temperature was returned to 25° C. and no precipitation was confirmed. The concentration of the toluene on this occasion was regarded as the solubility. In the case where precipitation was observed, toluene was further added until dissolution, and the concentration of the toluene at the time when dissolution was finally confirmed was regarded as the solubility.
With `c12c3c4c5c1c1c6c7c2c2c8c3c3c9c4c4c%10c5c5c1c1c6c6c%11c7c2c2c7c8c3c3c8c9c4c4c9c%10c5c5c1c1c6c6c%11c2c2c7c3c3c8c4c4c9c5c1c1c6c2c3c41` [C60, fullerene] the “Solubility (% by weight)” value was 0.3 % by weight. For “1-(3-methoxycarbonyl)propyl-1-phenyl(6,6)-C60 [PCBM]”, the “Solubility (% by weight)” value was 1.5 % by weight.
